Entries after “also recorded” stand apart in the source; their conditions may differ. Where no end group is shown, it is not given here.
Legend:
[1] = test system: C57B mice injected with Dexamethasone; test: In vivo cachexia trial (Dexamethasone-induced)
Method: A study of chronic cachexia was designed whereby C57B mice, 4 weeks of age, were injected with the glucocorticoid drug Dexamethasone daily at a concentration of 1 mg/kg body weight. Three treatment groups were designed: 5 mice receiving daily injections of saline, 5 mice receiving daily injections of Dexamethasone and 5 mice receiving daily injections of Dexamethasone plus 300 antagonist at a concentration of 6μg/g body weight. Body weight of the mice was recorded daily and monitored closely for signs of cachexia. Food and water consumption was recorded to ensure that loss in body weight was not due to a loss of appetite or thirst. Body weights, fat-pad weights, and MyoD and Pax7 expression were assessed.

primary ovine myoblasts = test: Ovine myoblast proliferation assay; assay type: cell-based; settings: 1, 5 or 10 μg/ml; 48 hours
Method: (§1) Human skeletal muscle myoblasts (Cambrex, USA) or primary ovine myoblasts were grown in Dulbecco's Modified Eagle Medium containing 20% FBS, 10% Horse serum and 0.5% chicken embryo extract according to the standard techniques. The myoblast proliferation assay was carried out in uncoated 96-well microtitre plates. Cell cultures were seeded at 2000 cells/well. Following a 24-hour attachment period, test media supplemented with 5% FCS containing either buffer as a control or different myostatin antagonists (300, 310 or 320) were added at 1, 5 and 10 μg/ml and cells were incubated for a further 144 hour period (for human cells) or 48 hours (for ovine cells). After the incubation period, proliferation was assessed using methylene blue photometric endpoint assay as previously described (Thomas et al, 2000).

satellite cells = test: Single muscle fibre satellite cell activation assay (PCNA labeling); assay type: cell-based, mice; settings: single fibres from old (2 year old) mice; 5 μg/ml; 24 or 48 hours
Method: Single fibres were isolated as previously described Rosenblatt et al., (1995). Briefly, 1 and 24 month old wild-type mice were euthanized by CO2 gas followed by cervical dislocation. TA were dissected out and digested in 0.2% (w/v) type 1A collagenase (>260 CDU/mg, Sigma) in Dulbecco's modified Eagle medium (DMEM) (Invitrogen) for 60 minutes at 37° C. Muscles were transferred to DMEM +10% horse serum (HS) +0.5% chicken embryo extract (CEE) and fibres were separated by gentle trituration. Isolated fibres were transferred to 4 well chamber slides (Becton Dickinson) coated with 10% matrigel (Becton Dickinson) and fixed with 100% ice cold methanol for 10 minutes after culturing up to 72 hours at 37° C. in 5% CO2.
Proliferating Cell Nuclear Antigen (PCNA) is expressed in cells that are actively undergoing cell cycle but not in quiescent cells. […] However, upon activation, satellite cells are activated to express PCNA and regenerate the muscle by replenishing the muscle fibres. Thus PCNA is a very reliable antigen to marker for the activated satellite cells.
In order to determine the effect of myostatin antagonists on satellite cell activation, single muscle fibres from TA muscle of young (1 month) or old (24 month) wild type mice were cultured in presence of 5 μg/ml of myostatin antagonist 320, 310 or 300, in culture media for 24, 48 and 72 hours and fixed with methanol and washed in PBS. The fixed fibres were permeabilised in 0.5% TritonX-100 in PBS for 10 minutes, blocked in 10% normal goat serum and 0.35% carrageenan lambda in PBS for 30 minutes at room temperature then incubated with a 1:100 dilution of anti-PCNA antibody in blocker overnight. Primary antibody was detected using goat anti-mouse-alexa fluor 546 and fibres were counterstained with DAPI. PCNA positive activated satellite cells were counted under microscope and expressed as a percent of total myonuclei.

myostatin [2] = test: Myoblast chemotaxis assay, recovery of myostatin chemo-inhibition by antagonists; assay type: cell-based
Method: Primary myoblasts were cultured from the hind limb muscle of young (4 to 6 week old) or old (24 month old) mice, according to the published protocols (Allen et al., 1997; Partridge, 1997). Briefly, muscles were minced, and digested in 0.2% collagenase type 1A for 90 min. Cultures were enriched for myoblasts by pre-plating on uncoated plates for 3 hours. Myoblast cultures were maintained in growth media (GM) supplemented with 20% fetal calf serum (FCS), 10% HS and 1% CEE on 10% Matrigel coated plates, at 37° C./5% CO2. The extent of culture purity was assessed by flow cytometry analysis of MyoD expression after 48 hours in culture. Cells were harvested using trypsin, suspended at a concentration of 10^6 cells/200 μl and fixed overnight in 5 ml 70% ethanol at −20° C. Staining was performed for 30 min at room temperature using rabbit polyclonal anti-MyoD, 1:200 (Santa Cruz), followed by Alexa fluor 488 anti-rabbit conjugate, 1:500 (Molecular Probes). Analysis was carried out in duplicate with 10^4 cell events collected in each assay. Debris was excluded by gating on forward and side scatter profiles. Cells were analyzed by FACScan (Becton Dickinson). Macrophages were isolated by a peritoneal lavage technique and/or derived from bone marrow Zymosan-activated mouse serum (ZAMS) was prepared according to the published protocol (Colditz and Movat, 1984).
For the chemotaxis assay of myoblasts, a first assay was carried out on myoblasts from 2 year old mice as follows. DMEM containing 2% horse serum (HS), 5% chicken embryo extract (CEE) plus dialysis buffer was used as positive control. […] Plain DMEM was used as negative control. On a 24-well plate, the bottom wells were filled with test or control media. Seventy-five thousand cells were added to the top wells containing polyethylene terephthalate (PET) 0.8 μm membranes coated with 1% Matrigel. The plate was incubated for 7 h at 37° C., 5% CO2. […] The membrane was then fixed, stained in Gill's hematoxylin and wet mounted on slides. Migrated cells were counted on four representative fields per membrane and the average number plotted. The results are shown in FIG. 6 (myoblast migration from old mice) and FIG. 7 (myoblast migration from young mice).

[3] = test system: Human skeletal muscle myoblasts; test: Human myoblast proliferation assay; assay type: cell-based; settings: 1, 5 or 10 μg/ml; 144 hours
Method: as §1

myostatin [4] = test: C2C12 myoblast proliferation competition assay: wild type myostatin competed with antagonists; assay type: cell-based; settings: antagonist 1, 5 and 10 μg/ml; myostatin 2.25 μg/ml
Method: (§2) Bovine C2C12 myoblasts were grown in Dulbecco's modified eagle medium according to the standard techniques (Thomas et al, 2000). The myoblast proliferation assay was carried out in uncoated 96-well microtitre plates. C2C12 cultures were seeded at 1000 cells/well. Following a 16-hour attachment period, test media containing either recombinant wild type myostatin or different myostatin antagonists were added and cells were incubated for a further 48 or 72 hour period. For competition assay, wild type myostatin was competed with different concentrations of myostatin antagonists prior to the addition into the media. After the incubation period, proliferation was assessed using methylene blue photometric endpoint assay as previously described (Thomas et al, 2000).

C2C12 myoblasts = test: C2C12 myoblast proliferation assay (methylene blue endpoint); assay type: cell-based, murine; settings: for proliferation capacity of myoblasts compared to control: 1 μg/ml or 5 μg/ml over 48 or 72 hours; for concentration at which the highest myoblast proliferation rate was observed: 48 hour time point
Method: A polypeptide of the invention, or a fragment, variant or derivative thereof has the biological function of antagonising myostatin activity. To determine whether a polypeptide of the invention, or a fragment, variant or derivative thereof, is able to antagonise myostatin activity, such activity can be tested by growing myoblasts in the presence or absence (control) of a candidate polypeptide of the invention. […]
as §2, with “The” for “Bovine C2C12 myoblasts were grown in Dulbecco's modified eagle medium according to the standard techniques (Thomas et al, 2000). The”

[5] = Dexamethasone, right gastrocnemius, p<0.05
[6] = myoblasts from old (2 year old) mice, antagonist added at 5 μg/ml, myostatin 2.5 μg/ml

Molecule | proliferation capacity of ovine myoblasts compared to control (primary ovine myoblasts) | percentage of activated satellite cells (satellite cells) | rescue of chemo-inhibiting effects of myostatin on myoblast migration (myostatin [2]; [6]) | proliferation capacity of human myoblasts compared to control [3] | rescue of the proliferation-inhibiting effects of myostatin on myoblasts (myostatin [4]) | proliferation capacity of myoblasts compared to control (C2C12 myoblasts) | concentration at which the highest myoblast proliferation rate was observed (C2C12 myoblasts) [µg/mL] | further results
C[C@@H]1C[C@H]2[C@@H]3CCC4=CC(=O)C=C[C@]4(C)[C@@]3(F)[C@@H](O)C[C@]2(C)[C@@]1(O)C(=O)CO [Dexamethasone, reference compound] |  |  |  |  |  |  |  | average body weight compared with saline injected controls ([1]; Dexamethasone 1 mg/kg daily, 22 days): reduction in average body weight; increase in left retroperitoneal fat-pad weight compared to saline ([1]; Dexamethasone only): 62.9%; increase in right retroperitoneal fat-pad weight compared to saline ([1]; Dexamethasone only): 60.4%; left and right retroperitoneal and inguinal fat-pad weights compared to saline ([1]; Dexamethasone only, p<0.05): statistically significant increases; MyoD expression (Western blot) [1, 5]: significant down-regulation; Pax7 expression (Western blot) [1, 5]: significant down-regulation
myostatin antagonist 310: recombinant peptide, amino acids 267-310 of bovine myostatin, with N terminal and C terminal tag (SEQ ID NO: 5) (DFGLDCDEHSTESRCCRYPLTVDFEAFGWDWIIAPKRYKANYCS; cysteine pairing not given here; also: N- and C-terminal tags; listed as Homo sapiens) | significantly enhanced | Significant increases | rescued to levels similar to those observed in the control | significantly enhanced | rescued to levels similar to those observed in the positive control | significantly enhanced | 5 | rescue of chemo-inhibiting effects of myostatin on myoblast migration (myostatin [2]; myoblasts from young (1 month old) mice): rescued the migration of myostatin cells to control levels
myostatin antagonist 280: recombinant peptide, amino acids 267-280 of bovine myostatin, with tags; contains only one cysteine residue; inactive comparison (DFGLDCDEHSTESR; also: with tags; UniProt O18836 267-280, looked up, fragment) |  |  |  |  |  | did not show activity above the control |  | biological (myostatin antagonist) activity of the peptide (C2C12 myoblasts; listed as 280): appears to be inactive; also recorded: not biologically active
myostatin antagonist 320: recombinant peptide, amino acids 267-320 of bovine myostatin, with N terminal and C terminal tag (SEQ ID NO: 4) (DFGLDCDEHSTESRCCRYPLTVDFEAFGWDWIIAPKRYKANYCSGECEFVFLQK; cysteine pairing not given here; also: N- and C-terminal tags; listed as Homo sapiens) | significantly enhanced | Significant increases | rescued to levels similar to those observed in the control | significantly enhanced | rescued to levels similar to those observed in the positive control | significantly enhanced | 5 | 
myostatin antagonist 329: recombinant peptide, amino acids 267-329 of bovine myostatin, with N terminal and C terminal tag (SEQ ID NO: 3) (protein, listed as Homo sapiens, N- and C-terminal tags) DFGLDCDEHSTESRCCRYPLTVDFEAFGWDWIIAPKRYKANYCSGECEFVFLQKYPHTHLVHQ |  |  |  |  |  | significantly enhanced | 10 | 

From patent US8309068B2, “Isolated polypeptides and methods of improving muscle strength” (Myostin Therapeutics Pty Ltd., priority 2006, dated 2012)
